The target in this test is Dual specificity tyrosine-phosphorylation-regulated kinase 1A (Homo sapiens, UniProt Q13627). Put plainly: DYRK1A Kinase Assay. Here is the method: Each compound was dissolved in DMSO as a 10 mM stock and used to prepare compound source plates. Serial dilution (1:3, 11-point dose-response curves from 10 μM to 0.00016 μM) and compound transfer was performed using the ECHO 550 (Labcyte, Sunnyvale, CA) into 1536-well black-walled round bottom plates (Corning).The DYRK1A kinase assay was run using the Ser/Thr 18 peptide Z-lyte assay kit according to manufacturer's instructions (Life Technologies—a Division of Thermo-Fisher). This is a non-radioactive assay using fluorescence resonance energy transfer (FRET) between coumarin and fluorescein to detect kinase activity which is represented as a ratio of coumarin emission/fluorescein emission.Briefly, recombinant DYRK1A kinase, ATP and Ser/Thr peptide 18 were prepared in 1× Kinase buffer to final concentrations of 0.25 μg/mL, 15 μM, and 4 μM respectively. The mixture was allowed to incubate with the representative compounds for one hour at room temperature. All reactions were performed in duplicate. Unphosphorylated (“0% Control”) and phosphorylated (“100% control”) forms of Ser/Thr 18 served as control reactions. Additionally, an 11-point dose-response curve of Staurosporine (1 uM top) was run to serve as a positive compound control.After incubation, Development Reagent A was diluted in Development Buffer then added to the reaction and allowed to further incubate for one hour at room temperature. The plate was read at Ex 400 Em 455 to detect the coumarin signal and Ex 400 Em 520 to measure the signal (EnVision Multilabel Plate Reader, PerkinElmer).
A word on the EC50: it is the concentration needed to bring the measured effect to its halfway point. In the case of `C[C@]1(O)CC[C@H](Nc2ncc3c(-c4ccn5nccc5c4)c[nH]c3n2)CC1` [US20250129104, Compound 2238], a half-maximal effect (EC50) was put at 35.2 nM.
`COc1nc(N[C@H](C)C(F)(F)F)c2c(-c3ccc4nc(C)n(CC(F)F)c4n3)c[nH]c2n1` [US20250129104, Compound 2817] came in with an EC50 of 5440 nM.
The result for `COc1nc(N[C@H]2CC[C@@](C)(O)CC2)nc2[nH]cc(-c3ccc4ncnn4c3)c12` [US20250129104, Compound 3053] reads 1.4 nM.
